Measured values reported in US20210023074A1, “TREATMENT OF DEMYELINATING DISEASES” (Victoria Link Ltd., priority 2018, published 2021).
Like-named read-outs stand apart in the source and are kept apart here.

Experiments:
spinal cord of EAE mice = experiment: Luxol fast blue histology of spinal cord, % demyelination in EAE mice; format: in vivo, C57BL/6 mice; conditions: 0.01 mg/kg i.p. daily from disease onset, chronic phase
Experimental: Experimental detail: EAE was induced in female C57BL/6 mice as described in Example 1. On the day of disease onset (score >1), mice were started on daily treatment with vehicle only or nalmefene at 0.01 mg/kg by i.p. injection. During the chronic phase (>24 days post treatment initiation), mice were culled, perfused with 4% paraformaldehyde and spinal cords were processed for histology. […] Shown are the means and standard error of individual values from vehicle (n=7) or 0.01 (n=3) nalmefene-treated EAE mice. *p<0.05 by one-way ANOVA with Holm-Sidak's multiple comparison test.

[1] = tested on: Alcohol consumption (Wistar and AA rat); conditions: cited from earlier work
[2] = tested on: infiltrating immune cells (CD45high) in brain of EAE mice; experiment: Immune cell infiltration into the brain of EAE mice (flow cytometry); format: in vivo, C57BL/6 mice
Experimental: On day 17, mice were started on daily treatment with vehicle only (Veh) or nalmefene (NaIM) at 0.1 or 0.03 mg/kg by i.p. injection. On day 45 after immunization to induce EAE, mice were culled and immune cells isolated from the brains. Isolation was by Percoll gradient as described in White et al. 2018. Scientific Reports. 8:259. Once isolated, cells were stained with fluorescently labelled antibodies to identify specific immune cell types and analysed by flow cytometry. All infiltrating immune cells were identified by CD45^high expression; CD4 T cells were identified as CD45^highCD4^+, and macrophages as CD45^highCD11b^+Gr-1^−. The relative number of cells is expressed as a ratio to microglia (MG), a brain resident immune cell identified as CD45^mediumCD11b^+. ***p<0.001, **p<0.01, and *p<0.05 by one-way ANOVA with Dunnett's multiple comparison test.
Experimental detail: EAE was induced in female C57BL/6 mice as described in Example 1. […] Once isolated, cells were stained with fluorescently labelled antibodies to identify specific immune cell types and analysed by flow cytometry. […] The relative number of cells is expressed as a ratio to microglia (MG), a brain resident immune cell identified as CD45^mediumCD11b+. ****p<0.0001 and **p<0.01 by one-way ANOVA with Holm-Sidak's multiple comparison test compared to vehicle.

[3] = tested on: experimental autoimmune encephalomyelitis (EAE) mice; experiment: EAE model of MS, disease score, treatment from day of disease onset (score >1); format: in vivo, C57BL/6 mice
Experimental: Experimental detail: EAE was induced in female C57BL/6 mice as described in Example 1. On the day of disease onset (score >1, dotted line), mice were started on daily treatment with vehicle only (Veh) or nalmefene (NaIM) at 0.1, 0.03, 0.01, or 0.003 mg/kg by i.p. injection. […]
Experimental detail: EAE was induced in female C57BL/6 mice as described in Example 1. On the day of disease onset (score >1, dotted line), mice were treated with vehicle only (daily), nalmefene (0.01 mg/kg by i.p. injection daily), the KOR antagonist norBNI (10 mg/kg by i.p. injection weekly), both nalmefene and norBNI, or the MOR antagonist BFNA (10 mg/kg by i.p. injection weekly).
Experimental detail: EAE was induced in female C57BL/6 mice as described in Example 1. On the day of disease onset (score >1, dotted line), mice were treated with vehicle only (daily), nalmefene (0.01 mg/kg by i.p. injection daily), the KOR antagonist norBNI (10 mg/kg by i.p. injection weekly), both nalmefene and norBNI, or the MOR antagonist BFNA (10 mg/kg by i.p. injection weekly). The peak disease score during the first EAE episode was recorded, and mice were considered recovered if they received a score <0.5 by day 23 post treatment initiation.
Experimental detail: EAE was induced in female C57BL/6 mice as described in Example 1.

EAE-induced weight loss = format: in vivo, C57BL/6 mice; conditions: 0.1 or 0.03 mg/kg i.p. daily from day 17
Experimental: Experimental detail: Female, C57BL/6 mice were immunized subcutaneously (s.c.) in the hind flanks to induce EAE using myelin oligodendrocyte glycoprotein (MOG) peptide 35-55 (50 μg/mouse) in complete Freund's adjuvant containing heat-killed Mycobacterium tuberculosis (500 μg/mouse). In addition, pertussis toxin (200 ng/mouse) was administered intraperitoneally (i.p.) on days 0 and 2. Mice were weighed and scored daily. On day 17 (dotted line), mice were started on daily treatment with vehicle only (Veh; 10% tween and 10% DMSO in saline) or Nalmefene (NaIM) at 0.1, 0.03, or 0.01 mg/kg by i.p. injection. Nalmefene was supplied by University of Kansas, Synthetic Chemical Biology Core Laboratory, 97.6% pure by HPLC). Treatment allocation was blinded. The disease was scored from 0-5 with 0 (normal), 1 (partial tail paralysis), 2 (full tail paralysis), 3 (one hind limb paralysed or severe disability in both hind limbs), 4 (complete paralysis of both hind limbs) and 5 (moribund). This model is a standard disease model for multiple sclerosis and is described in White et al. 2018. Scientific Reports. 8:259 which is incorporated herein by reference in its entirety. […]
Experimental detail: EAE was induced in female C57BL/6 mice as described in Example 1. Mice were weighed daily and the % change in body weight calculated. […]

[4] = Alcohol consumption (AA rat), PO
[5] = 0.01 mg/kg i.p. daily from disease onset
[6] = 0.003-0.1 mg/kg i.p. daily from disease onset

C=C1CC[C@@]2(O)[C@H]3Cc4ccc(O)c5c4[C@@]2(CCN3CC2CC2)[C@H]1O5 [nalmefene, (4R,4aS,7aS,12bS)-3-(cyclopropylmethyl)-7-methylidene-2,4,5,6,7a,13-hexahydro-1H-4,12-methanobenzofuro[3,2-e]isoquinoline-4a,9-diol]
% demyelination of spinal cord (luxol fast blue) (spinal cord of EAE mice): significant reduction demyelination | ED50 [1, 4]: 16.1 μg/kq | Inhibition (%) [1, 4]: 23% | Inhibition (%) ([1]; Alcohol consumption (Wistar and AA rat), SC, 4 days): 73% | Inhibition (%) ([1]; Alcohol consumption (Wistar and AA rat), SC, 26 days): 67% | Inhibition (%) ([1]; Alcohol consumption (Wistar rat), SC, 6 days): 75% | In vivo efficacy ED50 ([1]; SC administration, rat): 0.2 to 0.4 mg/kg | number of infiltrating immune cells in brain (ratio to microglia) ([2]; 0.03 mg/kg i.p. daily from day 17, day 45): significantly reduced the number of infiltrating immune cells | number of infiltrating immune cells in brain (ratio to microglia) ([2]; 0.03 mg/kg i.p. daily from disease onset, chronic phase (>24 days)): significantly reduced the number of infiltrating immune cells | disease score (recovery from paralysis) [3, 5]: recovery from paralysis, which is complete | peak disease score during first EAE episode [3, 5]: modest but significant effect | percentage of mice recovered (score <0.5 by day 23 post treatment initiation) [3, 5]: all of the mice recover | number of days in recovery [3, 6]: enables a sustained functional recovery | percentage of mice recovered (score <0.5 by day 23 post treatment initiation) [3, 6]: enables full functional recovery | dose showing the most rapid recovery ([3]; i.p. daily from disease onset, replicated in 6 independent experiments): 0.01 mg/kg | disease score ([3]; nalmefene 0.01 mg/kg i.p. daily in the presence of norBNI 10 mg/kg i.p. weekly): effective at reducing disease independently of the KOR | number of days in recovery (sustained recovery) ([3]; nalmefene 0.01 mg/kg i.p. daily, clemastine fumerate 10 mg/kg i.p.): sustained recovery | disease score (functional recovery), comparison nalmefene vs clemastine ([3]; nalmefene 0.01 mg/kg i.p. daily, clemastine fumerate 10 mg/kg i.p., from disease onset): almost complete recovery from paralysis | % change in body weight (EAE-induced weight loss): recover from EAE-induced weight loss
